A word on the EC50: it is the concentration that produces a half-maximal response. For orientation: IC50 means the concentration that gives 50% inhibition. High values mean a need for much substance, low ones inhibition by little substance.

Some results are limits rather than exact numbers.

From ChEMBL document CHEMBL4706647, “Development and optimization of halogenated vinyl sulfones as Nrf2 activators for the treatment of Parkinson's disease” (Eur J Med Chem, 2021) come the findings set out here.

Data set [1] has as its target T1, Nuclear factor erythroid 2-related factor 2 (Homo sapiens, UniProt Q16236).
T1 sequence (Q16236 whole entry): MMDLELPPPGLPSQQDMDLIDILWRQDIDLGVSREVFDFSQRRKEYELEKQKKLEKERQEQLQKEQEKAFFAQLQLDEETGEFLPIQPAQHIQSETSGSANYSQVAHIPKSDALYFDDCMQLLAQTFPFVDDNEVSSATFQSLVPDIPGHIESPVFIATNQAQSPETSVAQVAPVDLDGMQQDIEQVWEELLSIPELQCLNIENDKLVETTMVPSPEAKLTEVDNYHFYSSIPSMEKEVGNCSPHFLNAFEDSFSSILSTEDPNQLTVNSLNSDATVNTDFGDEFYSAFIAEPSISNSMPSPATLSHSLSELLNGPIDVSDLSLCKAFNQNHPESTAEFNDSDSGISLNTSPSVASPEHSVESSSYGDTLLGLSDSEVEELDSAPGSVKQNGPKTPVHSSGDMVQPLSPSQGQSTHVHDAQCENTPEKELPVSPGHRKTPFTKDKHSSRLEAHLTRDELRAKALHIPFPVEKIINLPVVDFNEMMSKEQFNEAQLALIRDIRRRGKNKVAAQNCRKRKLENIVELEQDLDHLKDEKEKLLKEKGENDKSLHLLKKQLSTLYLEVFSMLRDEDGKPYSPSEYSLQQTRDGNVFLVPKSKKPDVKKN
The experiment in a line: Activation of Nrf2 (unknown origin) expressed in human U2OS cells co-expressing Keap1 assessed as increase in Nrf2 nuclear translocation incubated for 6 hrs under dark condition by pathhunter assay. It counts as cell-based.

The nature of data set [2]: Cytotoxicity against mouse BV-2 cells assessed cell viability at 10 uM measured after 6 hrs by Ez-cytox reagent based assay relative to control. Particulars: read-out: Activity.
Data set [3] addresses CYP2C9 (Homo sapiens, UniProt P11712). The experiment in a line: Inhibition of CYP2C9 (unknown origin) assessed as residual activity. The data set is classed as ADME.
The nature of data set [4]: Stability in human plasma assessed as parent compound remaining after 30 mins by LC-MS/MS analysis. It counts as ADME, cell-free. Particulars: read-out: Stabilty.
Data set [5] deals with Voltage-gated inwardly rectifying potassium channel KCNH2 (Homo sapiens, UniProt Q12809). The experiment in a line: Inhibition of fluorescence tracer red binding to human ERG measured after 4 hrs by fluorescence polarization assay. For orientation: Polarisation of emitted light reports the rotation of a fluorescent probe.
Sequence of Voltage-gated inwardly rectifying potassium channel KCNH2 (Q12809 whole entry): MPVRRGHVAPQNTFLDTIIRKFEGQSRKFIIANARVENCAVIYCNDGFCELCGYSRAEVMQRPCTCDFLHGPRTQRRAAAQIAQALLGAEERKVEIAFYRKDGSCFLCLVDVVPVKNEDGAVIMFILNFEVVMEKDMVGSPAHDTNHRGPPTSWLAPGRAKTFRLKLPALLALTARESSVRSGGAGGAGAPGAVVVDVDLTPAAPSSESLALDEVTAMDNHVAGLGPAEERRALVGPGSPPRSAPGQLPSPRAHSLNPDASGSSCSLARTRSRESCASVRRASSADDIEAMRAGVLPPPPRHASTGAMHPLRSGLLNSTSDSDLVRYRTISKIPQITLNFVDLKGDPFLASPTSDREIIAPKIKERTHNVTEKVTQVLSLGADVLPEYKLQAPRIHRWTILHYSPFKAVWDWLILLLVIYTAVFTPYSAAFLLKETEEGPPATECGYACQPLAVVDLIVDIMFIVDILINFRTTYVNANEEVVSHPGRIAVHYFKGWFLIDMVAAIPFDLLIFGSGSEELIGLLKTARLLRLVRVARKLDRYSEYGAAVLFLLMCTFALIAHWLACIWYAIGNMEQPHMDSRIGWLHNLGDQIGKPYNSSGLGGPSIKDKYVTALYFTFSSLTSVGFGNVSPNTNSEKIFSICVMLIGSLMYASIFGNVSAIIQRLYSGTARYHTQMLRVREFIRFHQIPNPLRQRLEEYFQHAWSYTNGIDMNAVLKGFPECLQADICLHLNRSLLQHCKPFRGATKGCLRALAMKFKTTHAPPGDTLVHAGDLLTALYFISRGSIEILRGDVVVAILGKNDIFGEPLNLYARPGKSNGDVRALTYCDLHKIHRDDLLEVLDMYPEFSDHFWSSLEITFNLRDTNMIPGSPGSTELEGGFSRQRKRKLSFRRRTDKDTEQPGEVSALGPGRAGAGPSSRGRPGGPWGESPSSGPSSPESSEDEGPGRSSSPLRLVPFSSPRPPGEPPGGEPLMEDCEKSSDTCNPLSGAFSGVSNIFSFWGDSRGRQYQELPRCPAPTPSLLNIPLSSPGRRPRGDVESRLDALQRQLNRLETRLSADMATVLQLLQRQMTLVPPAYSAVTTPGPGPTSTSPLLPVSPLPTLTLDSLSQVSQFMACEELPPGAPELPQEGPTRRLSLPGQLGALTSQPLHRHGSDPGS

Sequence of CYP2C9 (P11712 whole entry): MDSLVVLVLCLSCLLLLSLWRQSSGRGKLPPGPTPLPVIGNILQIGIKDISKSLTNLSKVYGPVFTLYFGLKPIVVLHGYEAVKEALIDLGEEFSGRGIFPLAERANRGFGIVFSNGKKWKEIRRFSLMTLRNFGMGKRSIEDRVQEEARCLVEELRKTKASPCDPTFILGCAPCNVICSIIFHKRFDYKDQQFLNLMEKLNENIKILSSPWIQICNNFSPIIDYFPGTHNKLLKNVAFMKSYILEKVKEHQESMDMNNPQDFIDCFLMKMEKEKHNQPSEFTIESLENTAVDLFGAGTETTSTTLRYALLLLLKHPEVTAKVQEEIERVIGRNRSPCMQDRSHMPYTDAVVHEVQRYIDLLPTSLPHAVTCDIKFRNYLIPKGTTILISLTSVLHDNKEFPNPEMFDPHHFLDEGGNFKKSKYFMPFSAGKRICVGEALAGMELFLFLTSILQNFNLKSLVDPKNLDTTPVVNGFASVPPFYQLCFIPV

Consider `O=S(=O)(/C=C\c1ncccc1Cl)c1cccc(Cl)c1`, for which the EC50 in data set [1] stood at 290 nM.
Consider `O=S(=O)(/C=C/c1ncccc1Cl)c1ccc(Cl)cc1`, for which, in data set [1], the EC50 is 65 nM.
Consider `O=S(=O)(/C=C/c1cccnc1Cl)c1cccc(Cl)c1`, for which the EC50 in data set [1] was 213 nM.
With `O=S(=O)(/C=C/c1ccccn1)c1ccc(F)cc1`, the half-maximal effective concentration (EC50) in data set [1] amounted to 3100 nM.
For `O=S(=O)(/C=C/c1cccnc1Cl)c1ccccc1Cl`, the EC50 in data set [1] came to 192 nM.
Take `O=S(=O)(/C=C/c1cccc(Cl)n1)c1cccc(Cl)c1`: the EC50 in data set [1] is 1070 nM.
For the molecule `O=S(=O)(/C=C\c1cccc(Cl)n1)c1ccccc1Cl`, the EC50 in data set [1] came out at 147 nM.
As for `O=S(=O)(/C=C/c1cccnc1Cl)c1ccc(F)cc1`, the EC50 in data set [1] was 339 nM.
Take `O=S(=O)(/C=C/c1ccc(Cl)nc1)c1ccccc1Cl`: in data set [1], the EC50 stood at 1630 nM.
For the molecule `O=S(=O)(/C=C/c1cccnc1)c1cccc(Cl)c1`, the EC50 in data set [1] was 3520 nM.
For the molecule `O=S(=O)(/C=C/c1ncccc1Cl)c1cccc(Cl)c1`, in data set [1], the EC50 was found to be 46 nM.
For `O=S(=O)(/C=C/c1ccc(Cl)cn1)c1cccc(Cl)c1`, the EC50 in data set [1] was 1510 nM.
As for `O=S(=O)(/C=C/c1ncccc1F)c1cccc(Cl)c1`, the EC50 in data set [1] was 198 nM.
Regarding `O=S(=O)(/C=C/c1ccc(Cl)nc1)c1ccc(F)cc1`, the EC50 in data set [1] was greater than 10000 nM.
For the molecule `O=S(=O)(/C=C/c1ccncc1)c1cccc(Cl)c1`, the EC50 in data set [1] came to 528 nM.
On to `O=S(=O)(/C=C/c1ccc(Cl)nc1)c1cccc(F)c1`, for which the EC50 in data set [1] worked out at 4870 nM.
Turning to `O=S(=O)(/C=C/c1ccc(Cl)cn1)c1ccccc1Cl`, the EC50 in data set [1] was determined as 2940 nM.
For the molecule `O=S(=O)(/C=C\c1ccc(Cl)nc1)c1cccc(Cl)c1`, the EC50 in data set [1] turned out to be 3390 nM.
Still for that read-out and setting: to `O=S(=O)(/C=C/c1ccncc1)c1ccccc1Cl` belongs 781 nM; to `O=S(=O)(/C=C/c1cccc(Cl)n1)c1ccccc1F`, 898 nM.
Turning to `O=S(=O)(/C=C/c1ccc(Cl)cn1)c1ccccc1F`, in data set [1], the EC50 came out at 1040 nM.
As to `O=S(=O)(/C=C/c1cccnc1Cl)c1cccc(F)c1`, the EC50 in data set [1] was determined as 328 nM.
For `O=S(=O)(/C=C\c1cccnc1Cl)c1ccccc1Cl`, the concentration for a half-maximal effect (EC50) in data set [1] was determined as 384 nM.
For the molecule `O=S(=O)(/C=C\c1ncccc1F)c1ccccc1F`, the EC50 in data set [1] came to 482 nM.
With `O=S(=O)(/C=C/c1cccc(Cl)n1)c1ccc(F)cc1`, the EC50 in data set [1] was 2790 nM.
Regarding `O=S(=O)(/C=C/c1ncccc1Cl)c1ccccc1F`, the EC50 in data set [1] stood at 30 nM.
Turning to `O=S(=O)(/C=C\c1ncccc1F)c1cccc(Cl)c1`, the EC50 in data set [1] was found to be 252 nM.
Same read-out and setting: to `O=S(=O)(/C=C\c1ncccc1Cl)c1ccccc1F` belongs 1030 nM.
In the case of `O=S(=O)(/C=C/c1ccccn1)c1ccc(Cl)cc1`, in data set [1], the EC50 was found to be 1730 nM.
Take `O=S(=O)(/C=C/c1ccccn1)c1ccccc1F`: the EC50 in data set [1] came to 1050 nM.
Turning to `O=S(=O)(/C=C/c1ccc(Cl)cn1)c1cccc(F)c1`, the EC50 in data set [1] is 2500 nM.
On to `COc1ccccc1S(=O)(=O)/C=C/c1ccccc1Cl`, for which the viability at 6 h, 10 µM in data set [2] amounted to 90.1%. Further, the activity in data set [3] amounted to 100%. Further, the remaining at 0.5 h in data set [4] stood at 86.1%. Besides, in data set [5], the IC50 was found to be 12000 nM.
Turning to `O=S(=O)(/C=C/c1ncccc1F)c1ccccc1F`, the EC50 in data set [1] came out at 176 nM.
Same read-out and setting: the figure for `O=S(=O)(/C=C/c1cccnc1)c1ccccc1Cl` is 2850 nM; for `O=S(=O)(/C=C\c1ccc(Cl)nc1)c1cccc(F)c1` it is 965 nM; for `O=S(=O)(/C=C\c1cccnc1)c1cccc(F)c1` it is 4820 nM.
As for `O=S(=O)(/C=C/c1ccc(Cl)nc1)c1ccccc1F`, the EC50 in data set [1] is 2550 nM.
Same read-out and setting: the figure for `O=S(=O)(/C=C\c1ncccc1Cl)c1ccccc1Cl` is 1100 nM.
The same measure, in the same setting: to `O=S(=O)(/C=C/c1ncccc1F)c1ccc(F)cc1` belongs 542 nM; to `O=S(=O)(/C=C/c1ccncc1)c1ccccc1F`, 760 nM.
On the same count and under the same terms, to `O=S(=O)(/C=C/c1cccnc1)c1ccccc1F` belongs 6850 nM; to `O=S(=O)(/C=C/c1ncccc1Cl)c1ccc(F)cc1`, 231 nM; to `O=S(=O)(/C=C/c1cccnc1Cl)c1ccccc1F`, 217 nM.
With `O=S(=O)(/C=C/c1ccncc1)c1cccc(F)c1`, the EC50 in data set [1] came out at 950 nM.
In the case of `O=S(=O)(/C=C/c1ccccn1)c1cccc(Cl)c1`, the EC50 in data set [1] was 1430 nM.
With `O=S(=O)(/C=C/c1ccc(Cl)nc1)c1ccc(Cl)cc1`, the EC50 in data set [1] is greater than 10000 nM.
Regarding `O=S(=O)(/C=C/c1ccccn1)c1cccc(F)c1`, the EC50 in data set [1] is 1680 nM.
For the molecule `O=S(=O)(/C=C/c1ccc(Cl)cn1)c1ccc(F)cc1`, in data set [1], the EC50 is 4370 nM.
`O=S(=O)(/C=C\c1cccnc1Cl)c1ccccc1F`: the EC50 in data set [1] came to 3390 nM.
On the same count and under the same terms, to `O=S(=O)(/C=C\c1ncccc1Cl)c1ccc(Cl)cc1` belongs 1750 nM; to `O=S(=O)(/C=C/c1ccc(Cl)nc1)c1cccc(Cl)c1`, 2210 nM.
With `O=S(=O)(/C=C/c1ncccc1F)c1cccc(F)c1`, the EC50 in data set [1] is 474 nM.
For `O=S(=O)(/C=C/c1cccnc1Cl)c1ccc(Cl)cc1`, the EC50 in data set [1] is 305 nM.
Turning to `O=S(=O)(/C=C/c1ncccc1F)c1ccccc1Cl`, the EC50 in data set [1] was found to be 122 nM.
For `O=S(=O)(/C=C/c1ncccc1F)c1ccc(Cl)cc1`, the EC50 in data set [1] was 286 nM.
Turning to `O=S(=O)(/C=C/c1ccc(Cl)cn1)c1ccc(Cl)cc1`, the EC50 in data set [1] worked out at 3160 nM.
For the molecule `O=S(=O)(/C=C/c1ccccn1)c1ccccc1Cl`, in data set [1], the EC50 turned out to be 618 nM.
On the same count and under the same terms, the figure for `O=S(=O)(/C=C/c1cccc(Cl)n1)c1ccc(Cl)cc1` is 1460 nM; for `O=S(=O)(/C=C\c1ncccc1F)c1ccccc1Cl` it is 583 nM.
